Measurements taken from USRE38132E1, “Phenylpyrrolidines, phenylimidazolidines,3-phenyl-1,3-oxizolidines and 3-phenyl-1,3-thiazolidines and their use in the treatment of inflammatory disease” (Boehringer Ingelheim Pharmaceuticals, Inc., priority 1997, dated 2003).
Where two headings read alike, the source gives them in different places.

What was measured:
[1] = tested on: cell bound form of LFA-1 (CD18, CD11a) with ICAM-1, SKW3 cells; assay: Inhibition of SKW3 cell binding to ICAM-1 (PMA-stimulated); format: cell-based, human; details: Homo sapiens, read-out: Assay to Detect SKW3 Cells Binding to ICAM IC50
Outline: (§1)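 Compound-treated, PMA-stimulated human T-cell line SKW3 (50 μg/mL PMA final) allowed to adhere for 2 h at 37° C to wells coated with sICAM-1 at 40 μg/mL or fibronectin at 100 μg/mL. After gentle RPMI wash, 50% inhibition concentration or range reported in μM.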

[2] = tested on: SKW3 cells
[3] = tested on: LFA-1 dependent aggregation of JY cells; assay: JY cell homotypic aggregation assay (PMA-stimulated); format: cell-based, human
Outline: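 Homotypic aggregation of EBV-transformed JY cells, stimulated by phorbol myristate acetate ([…]), scored visually over time in compound presence at 2·10^5 cells/well in serum-supplemented RPMI 1640. Result given as μM concentration or range inhibiting binding by 50%.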

[4] = tested on: cell bound fibronectin receptor (VLA4) with fibronectin, SKW3 cells; assay: Inhibition of SKW3 cell binding to fibronectin (selectivity counter-assay); format: cell-based, human; details: for IC50: read-out: Assay to Detect SKW3 Cells Binding to FIBRONECTIN IC50
Outline: as §1

[5] = molecular target: T1, interaction of ICAM-1 with the Leukointegrin CD18/CD11a (LFA-1) (Homo sapiens, UniProt P05107+P20701); assay: Assay to determine inhibition of LFA-1 binding to ICAM-1 (immunopurified LFA-1 on plate-bound sICAM-1, ELISA readout)
T1 construct: endogenous in cells; sICAM-1: made in house, secreted from transfected CHO DUX cells
T1 sequence (P20701 26-1170): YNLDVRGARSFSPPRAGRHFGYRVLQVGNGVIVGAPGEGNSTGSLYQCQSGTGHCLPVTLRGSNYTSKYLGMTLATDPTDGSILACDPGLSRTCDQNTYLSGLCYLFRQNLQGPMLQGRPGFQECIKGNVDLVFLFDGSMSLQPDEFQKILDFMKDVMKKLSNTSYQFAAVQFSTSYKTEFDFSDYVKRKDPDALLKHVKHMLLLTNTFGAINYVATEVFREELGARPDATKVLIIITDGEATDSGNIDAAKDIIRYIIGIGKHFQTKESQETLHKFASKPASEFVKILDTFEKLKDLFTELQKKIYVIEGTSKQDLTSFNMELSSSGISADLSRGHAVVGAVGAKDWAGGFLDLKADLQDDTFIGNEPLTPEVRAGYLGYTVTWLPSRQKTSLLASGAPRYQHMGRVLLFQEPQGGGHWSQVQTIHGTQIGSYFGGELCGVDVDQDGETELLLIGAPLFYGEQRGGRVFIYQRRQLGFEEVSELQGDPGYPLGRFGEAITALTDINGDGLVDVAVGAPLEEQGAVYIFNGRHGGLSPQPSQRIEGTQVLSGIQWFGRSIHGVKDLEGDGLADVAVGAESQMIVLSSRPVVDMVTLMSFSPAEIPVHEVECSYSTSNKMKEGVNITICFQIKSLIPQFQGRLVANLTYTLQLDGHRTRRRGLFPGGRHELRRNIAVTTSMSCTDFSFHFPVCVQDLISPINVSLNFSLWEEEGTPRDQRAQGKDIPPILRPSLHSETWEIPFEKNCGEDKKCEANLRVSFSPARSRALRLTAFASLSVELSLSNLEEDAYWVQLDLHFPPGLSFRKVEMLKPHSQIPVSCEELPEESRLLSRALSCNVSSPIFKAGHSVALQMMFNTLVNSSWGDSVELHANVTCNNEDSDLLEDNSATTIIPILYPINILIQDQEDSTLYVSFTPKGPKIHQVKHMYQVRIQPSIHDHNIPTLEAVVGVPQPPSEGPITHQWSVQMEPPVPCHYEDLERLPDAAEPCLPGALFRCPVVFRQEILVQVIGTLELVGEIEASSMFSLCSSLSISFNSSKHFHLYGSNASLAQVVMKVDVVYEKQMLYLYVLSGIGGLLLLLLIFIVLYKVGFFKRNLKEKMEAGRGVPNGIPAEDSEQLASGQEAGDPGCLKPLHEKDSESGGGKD
T1 sequence (P05107 23-769): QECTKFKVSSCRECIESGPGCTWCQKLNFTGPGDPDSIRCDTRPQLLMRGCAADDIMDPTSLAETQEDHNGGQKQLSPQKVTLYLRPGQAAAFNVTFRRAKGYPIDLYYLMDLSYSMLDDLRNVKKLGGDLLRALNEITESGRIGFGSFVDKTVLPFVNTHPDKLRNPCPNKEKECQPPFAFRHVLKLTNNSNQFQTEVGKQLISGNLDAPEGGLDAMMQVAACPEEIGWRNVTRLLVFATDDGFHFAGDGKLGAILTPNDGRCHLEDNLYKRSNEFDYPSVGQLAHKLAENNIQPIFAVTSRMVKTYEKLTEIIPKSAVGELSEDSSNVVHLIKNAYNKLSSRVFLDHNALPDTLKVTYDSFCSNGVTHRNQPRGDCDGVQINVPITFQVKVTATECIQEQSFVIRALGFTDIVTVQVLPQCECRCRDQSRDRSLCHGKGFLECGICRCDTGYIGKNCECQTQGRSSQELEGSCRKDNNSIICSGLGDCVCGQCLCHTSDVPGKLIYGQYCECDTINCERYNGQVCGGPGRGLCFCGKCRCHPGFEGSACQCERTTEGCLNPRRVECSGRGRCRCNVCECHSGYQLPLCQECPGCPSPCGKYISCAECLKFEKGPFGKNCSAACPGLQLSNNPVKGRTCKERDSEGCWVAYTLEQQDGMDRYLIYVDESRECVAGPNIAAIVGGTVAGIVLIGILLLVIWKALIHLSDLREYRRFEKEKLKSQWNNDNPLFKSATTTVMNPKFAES
Excerpt: Assay to Determine Inhibition of LFA-1 Binding to ICAM-1 Purpose of Assay: This assay protocol is designed to study the direct antagonism, by a test compound, of the interaction of the CAM, ICAM-1 with the Leukointegrin CD18/CD11a (LFA-1). […] After collection and neutralization of fractions from the TS2/4 column, samples are pooled and precleared with Protein G agarose. […] Wells are washed 3 times with Diluting Buffer. The bound LFA-1 is detected by the addition of a polyclonal antibody directed against a peptide corresponding to the CD18 cytoplasmic tail in a 1:100 dilution with Diluting Buffer and 1% BSA and allowed to incubate for 45 min at 37° C. Wells are washed 3 times with Diluting Buffer and the bound polyclonal antibody is detected by the addition of a 1:4000 dilution of horse radish peroxidase conjugated to goat immunoglobulin directed against rabbit immunoglobulin. […] The lack of the addition of LFA-1 to the binding assay is used as a background control for all samples. A dose-response curve is obtained for all test compounds. Results of these tests are reported as Kd's in μM.

[6] = tested on: allogeneic cell transplant response, popliteal lymph node; assay: In vivo allogeneic cell transplant model (popliteal lymph node weight); details: Mus musculus, po; mice, per os, dose at which 50% inhibition is observed; read-out: Allogeneic Cell Transplantation Assay ACT ED50
Excerpt: In vivo: Allogeneic Cell Transplant Model Purpose of Assay: The ability of cells to recognize other cells from self or from another genetically different individual (non-self) is an important property in maintaining the integrity of tissue and organ structure. The allogeneic cell transplant response is an important model for studies of transplant rejection and immunocompetence. This T-cell-mediated immune response can be induced in adult mice by the injection of lymphocytes from a histoincompatible mouse strain into the footpad . This response is characterized by T-cell proliferation which is limited to the popliteal lymph node that receives drainage from the injected footpad area. No in vitro system can completely duplicate this in vivo response. Thus, this animal model can be used to assess the ability of a test compound to suppress transplant rejection. Description of Assay Protocol: Experiments are conducted using male or female mice (20-26 grams). Any histoincompatible mouse strains suffice for donor and recipient populations. Typically DBA mice are used as donors and […] mice are used as recipients. A minimum of 1 week stabilization and conditioning period is required before use during which time the animals are maintained in accordance with the Animal Resource Center S.O.P. Each study utilizes 36 recipient mice divided into groups of 6. The tests last approximately four days. Donor mice are sacrificed by CO2 asphyxiation and spleens are removed and made into a cell suspension. The cells (1.0·10^7/metatarsal in 0.05 mL) are injected intra dermal (according to standard protocol) into the dorsal metatarsal skin of recipient mice. Four days later, the animals are sacrificed by CO2 asphyxiation and the popliteal nodes are removed and weighed. Groups of mice receiving putative immunosuppressive agents are dosed subcutaneously, intraperitoneally or orally one hour prior to cell injection and daily thereafter according to standard protocol. Student's T-test was used to determine significant differences between popliteal lymph nodes of groups of untreated mice and those mice treated with putative immunosuppressive agents (see: Kroczek, R. A.; Black, C. D. V.; Barbet, […]. Immunology, 1987, 139, 3597). Data are reported as the dose at which 50% inhibition is observed and the manner in which the compound was administered. In Table 23, the following legends are applicable: ^and=not determined. ^bpercent inhibition at 160 μg/mL. ^cno inhibition observed up to highest dose. Exact quantification not always possible due to intrinsic toxicity of compound (see MTT result). ^[…] inhibition (concentration in μM ). ^eapproximated from incomplete dose-response curve. ^fnot determined; compound is a synthesis intermediate.

[7] = tested on: human MLR, peripheral blood mononuclear cells; assay: Inhibition of the mixed lymphocyte reaction (MLR), tritiated thymidine uptake; format: cell-based; parameters: key: Data are reported as “+” or “−” at a given concentration (in μM); Data are reported as “+” or “−” at a given concentration (in μM)
Procedure: Assay to Determine Inhibition the Mixed Lymphocyte Reaction
As discussed above, ICAM-1 is necessary for effective cellular interactions during an immune response mediated through LFA-1-dependent cell adhesion. When lymphocytes from two unrelated individuals are cultured together, blast transformation and cell proliferation of the lymphocytes are observed. This response is known as a mixed lymphocyte reaction (MLR) and is analogous to the response of lymphocytes to the 10 addition of antigens or mitogens (Immunology: The Science of Self-Nonself Discrimination; Klein, J., Ed.; John Wiley & Sons: NY, 1982, pp 453-458).
This assay protocol is used to determine the effect of a test compound on the human MLR.
Description of Assay Protocol:
Peripheral blood is obtained from normal, healthy donors by venipuncture. The blood is collected in heparinized tubes and diluted 1:1 at room temperature with Puck's G (GIBCO) balanced salt solution (BSS). The blood mixture (20 mL) is layered over 15 mL of a Ficoll/Hypaque density gradient (Pharmacia, density=1.078, room temperature) and centrifuged at 1000·g for 20 minutes. The interface is then collected and washed 3 times in Puck's G. The cells are counted on a hemocytometer and resuspended in RPMI 1640 culture medium (GIBCO) containing 0.5% of gentamicin, 1 mM L-glutamine (GICO) and 5% heat inactivated (56° C., 30 min) human AB sera (Flow Laboratories) (hereafter referred to as RPMI-culture medium).
Stimulator cells (cells that have been treated with irradiation so that they are unable to proliferate) from a separate donor are cultured with the responder cells at the same concentration. Test compound is added to wells at various concentrations. The total volume per culture is 0.2 mL. Controls include compound vehicle alone (DMSO), responder cells alone, and stimulator cells alone. The culture plates are incubated at 37° C. in a 5% CO2-humidified air atmosphere for 5 days.
The wells are pulsed with 0.5 μCi of tritiated thymidine (^3HT) (New England Nuclear) for the last 18 h of culture. In some cases a two-way MLR can be performed. The protocol is the same except that the second donor's cells are not inactivated by irradiation.
The cells are harvested onto glass fiber filters using an automated multiple sample harvester (Skatron, Norway), and rinsed with water and methanol. The filters are oven dried and counted in Aquasol in a Beckman (LS-3801) liquid scintillation counter.
Data are reported as “+” or “−” at a given concentration (in μM).

[8] = SKW3, values marked c: no inhibition observed up to highest dose
[9] = values marked c: no inhibition observed up to highest dose
[10] = values marked e approximated from incomplete dose-response curve
[11] = No inh = no inhibition observed up to highest dose, exact quantification not always possible due to intrinsic toxicity

| SMILES | Cellular Toxicity Assay MTT LD50 [2] | IC50 ([3]; Homo sapiens) | Kd [5, 10] | melting point | other results |
| --- | --- | --- | --- | --- | --- |
| CC(=O)N1C(=O)N(c2cc(Cl)cc(Cl)c2)C(=O)[C@@]1(C)Cc1ccc(-c2cccnc2)cc1 [Example 125] | >400 µM | 0.4 µM | 0.11 µM |  | IC50 [1, 8]: 1 to 3 µM; Assay to Detect SKW3 Cells Binding to FIBRONECTIN IC50 [4, 9]: No inh^c; ED50 [6]: ~90 mg/kg |
| CC1(Cc2ccc(-c3ccccc3)cc2)NC(=O)N(c2cc(Cl)cc(Cl)c2)C1=O (stereo not shown) [Example 49] |  |  | 0.26 µM | 61 to 63 °C |  |
| CC1(Cc2cccc(SC(F)(F)F)c2)NC(=O)N(c2cc(Cl)cc(Cl)c2)C1=O (stereo not shown) [Example 65] |  |  | 1.32 µM | 170 to 171 °C |  |
| CC1(Cc2ccc3c(Cl)cc(C(F)(F)F)nc3c2)NC(=O)N(c2cc(Cl)cc(Cl)c2)C1=O (stereo not shown) [Example 59] |  |  | 0.33 µM | 173 to 174 °C |  |
| CC1(Cc2ccc(F)c(F)c2)NC(=O)N(c2cc(Cl)cc(Cl)c2)C1=O (stereo not shown) [Example 54] |  |  | 0.42 µM | 117 to 118 °C |  |
| Cc1cc(C)cc(CC2(C)NC(=O)N(c3cc(Cl)cc(Cl)c3)C2=O)c1 (stereo not shown) [Example 50] |  |  | ~17 µM | > 240 °C |  |
| CC1(Cc2ccc(SC(F)(F)F)cc2)NC(=O)N(c2cc(Cl)cc(Cl)c2)C1=O (stereo not shown) [Example 60] |  |  | 0.23 µM | 133 to 134 °C |  |
| CC1(Cc2ccc(Cl)c(Cl)c2)NC(=O)N(c2cc(Cl)cc(Cl)c2)C1=O (stereo not shown) [Example 55] |  |  | 0.2 µM | 150 to 151 °C |  |
| CC1(Cc2ccc(C(F)(F)F)c(F)c2F)NC(=O)N(c2cc(Cl)cc(Cl)c2)C1=O (stereo not shown) [Example 67] |  |  | 3.54 µM | 163 to 164 °C |  |
| CN1C(=O)N(c2cc(Cl)cc(Cl)c2)C(=O)[C@@]1(C)Cc1ccc(Br)cc1 [Example 271] | 250 to 500 µM | 0.1 µM |  |  | IC50 ([1]; SKW3): 3 µM; Assay to Detect SKW3 Cells Binding to FIBRONECTIN IC50 [4, 11]: No inh^c; ED50 [6]: ~20 mg/kg |
| CC1(Cc2ccc(F)c(C(F)(F)F)c2)NC(=O)N(c2cc(Cl)cc(Cl)c2)C1=O (stereo not shown) [Example 69] |  |  | ~70 µM | 168 to 170 °C |  |
| CC1(Cc2ccccc2OC(F)(F)F)NC(=O)N(c2cc(Cl)cc(Cl)c2)C1=O (stereo not shown) [Example 66] |  |  | 2.85 µM | 153 to 155 °C |  |
| CC1(Cc2ccc(Cl)s2)NC(=O)N(c2cc(Cl)cc(Cl)c2)C1=O (stereo not shown) [Example 64] |  |  | 1.45 µM | 55 to 56 °C |  |
| CN1C(=O)N(c2cc(C(F)(F)F)cc(C(F)(F)F)c2)C(=O)C1(C)Cc1ccccc1 (stereo not shown) [Example 83] | 250 to 500 µM | 6 µM | 0.3 µM |  | IC50 [1, 8]: 13 to 25 µM; Mixed Lymphocyte Reaction MLR +/− ([7]; at 50 μM): +(50); IC50 [4, 9]: > 200 µM |
| C[C@]1(Cc2ccc(C(=O)c3ccccc3)cc2)NC(=O)N(c2cc(Cl)cc(Cl)c2)C1=O [Example 215] | 100 to 200 µM |  |  |  | IC50 ([1]; SKW3): 50 to 100 µM; Mixed Lymphocyte Reaction MLR +/− ([7]; at 50 μM): +(50); IC50 [3]: 3.1 µM; IC50 ([4]; Homo sapiens, SKW3, No inh = no inhibition observed up to highest dose, exact quantification not always possible due to intrinsic toxicity): > 100 µM; Kd [5]: 0.2 µM |
| CC1(Cc2ccc(Br)cc2)C(=O)N(c2cc(Cl)cc(Cl)c2)C(=O)N1C1CC1 (stereo not shown) [Example 169] | 160 to 230 µM | 1.5 µM | 0.05 µM |  | IC50 [1, 8]: 12 to 25 µM; Mixed Lymphocyte Reaction MLR +/− ([7]; at 25 μM): +(25); Assay to Detect SKW3 Cells Binding to FIBRONECTIN IC50 [4, 9]: No inh^c |
| C[C@@]1(Cc2ccc(Br)cc2)C(=O)N(c2cc(Cl)cc(Cl)c2)C(=O)N1CCCC(=O)O [Example 227] | 200 to 400 µM | 3.1 µM |  |  | IC50 ([1]; SKW3): 25 µM; Mixed Lymphocyte Reaction MLR +/− ([7]; at 50 μM): +(50); Assay to Detect SKW3 Cells Binding to FIBRONECTIN IC50 [4, 11]: No inh^c; Kd [5]: 0.18 µM |
| CN1C(=O)N(c2cc(Cl)cc(Cl)c2)C(=O)C1(C)Cc1ccc(F)cc1 (stereo not shown) [Example 146] | 100 µM | 0.4 µM | 0.13 µM |  | IC50 [1, 8]: 13 to 25 µM; Mixed Lymphocyte Reaction MLR +/− ([7]; at 50 μM): +(50); Assay to Detect SKW3 Cells Binding to FIBRONECTIN IC50 [4, 9]: No inh^c |
| CC1(Cc2ccc(C(F)(F)F)c(F)c2)NC(=O)N(c2cc(Cl)cc(Cl)c2)C1=O (stereo not shown) [Example 62] |  |  | 0.16 µM | 67 to 69 °C |  |
| COc1c(F)c(F)c(CC2(C)NC(=O)N(c3cc(Cl)cc(Cl)c3)C2=O)c(F)c1F (stereo not shown) [Example 61] |  |  | 2.35 µM | 122 to 123 °C |  |
